According to patent US20220315890A1, “NERVE CELL AND APPLICATION THEREOF” (FUJIFILM Corporation, priority 2021, published 2022):

Key:
[1] = test system: hiPSC-derived nerve cells overexpressing tau (1N4R); assay: Nerve cell death / cell survival by CellTiter Glo assay after overexpression of tau; format: cell-based, human; details: compound added at replating, 2 days before lentivirus infection, cultured about 7 days, FIG. 8
Description: (§1) Frozen nerve cells were thawed in a hot water bath and plated on a 96-well plate at the number of cells of about 3×10^4 cells/well or on a 12-well plate at about 30×10^4 cells/well, where the plates had been coated with poly-D-lysine (PDL) and iMatrix (Nippi, Incorporated), in a neural replating medium containing DOX (a medium obtained by adding 2% of a B27 Plus supplement, 1% of a Culture One supplement, 200 μmol/L of dbcAMP, 200 μmol/L of L-ascorbic acid, and 2 μg/mL of DOX to a Neurobasal plus:DMEM/F12 HAM=1:1 medium). In addition, 1 μmol/L of Tau Accell siRNA (Dharmacon, Inc., #A-012488-13) described in (7) below or a compound described in (9) below was added thereto. After the culture in a CO2 incubator at 37° C. for 2 days, the cells were […] and cultured for about 7 days, and then various evaluations were carried out.
The decrease in cell survival rate due to overexpression of tau according to the method (4) was confirmed by the CellTiter Glo assay (Promega Corporation). It was confirmed that about 20% to 90% of nerve cell death occurred due to overexpression of tau depending on the amount of lentivirus.
According to the method (4), the drug efficacy of methylene blue and isoproterenol, which had been reported to have an inhibitory action on tau aggregation in nerve cells after the overexpression of tau, and a microtubule stabilizer epothilone D was evaluated. The cytoprotective action of the compound was measured by a CellTiter Glo assay. The effect on tau aggregation was quantified by standardizing the Tau oligomer antibody-positive protrusion length in the neurite obtained by fluorescent staining with the 4R tau antibody-positive protrusion length.

[2] = molecular target: T1, tau aggregation in hiPSC-derived nerve cells overexpressing tau (1N4R) (Homo sapiens, UniProt P10636); assay: Tau aggregation: Tau oligomer antibody (T22)-positive protrusion length standardized with 4R tau antibody-positive protrusion length; format: cell-based; details: at the compound concentration at which a cytoprotective action was exhibited; fluorescent staining; FIG. 8
T1 construct: expressed in transfected cells; host or cells: human iPS cell-derived nerve cells (Ngn2 / miR-9/9*-124 induced), transduced with CSII-TRE-hTau (1N4R)-IRES-Zeo lentivirus, DOX-induced
T1 sequence (P10636 1-412 isoform P10636-7): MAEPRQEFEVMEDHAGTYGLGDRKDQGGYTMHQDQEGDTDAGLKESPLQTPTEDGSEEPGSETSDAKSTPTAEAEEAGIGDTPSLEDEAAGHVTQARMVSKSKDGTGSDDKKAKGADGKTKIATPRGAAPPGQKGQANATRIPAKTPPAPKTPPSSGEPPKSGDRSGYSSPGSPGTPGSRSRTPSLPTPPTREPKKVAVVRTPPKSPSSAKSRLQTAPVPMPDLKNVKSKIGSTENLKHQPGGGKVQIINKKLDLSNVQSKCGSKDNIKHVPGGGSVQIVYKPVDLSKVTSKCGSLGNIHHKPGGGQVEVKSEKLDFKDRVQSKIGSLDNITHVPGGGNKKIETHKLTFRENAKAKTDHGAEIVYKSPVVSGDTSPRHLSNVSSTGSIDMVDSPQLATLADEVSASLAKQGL
Description: as §1
The nerve cells after the overexpression of tau according to the method (4) were subjected to fluorescent staining using a tau oligomer antibody (T22) (Merck Millipore).
The cytoprotective action of the compound was measured by a CellTiter Glo assay. The effect on tau aggregation was quantified by standardizing the Tau oligomer antibody-positive protrusion length in the neurite obtained by fluorescent staining with the 4R tau antibody-positive protrusion length.

C/C1=C/C[C@@H](/C(C)=C/c2csc(C)n2)OC(=O)C[C@H](O)C(C)(C)C(=O)[C@H](C)[C@@H](O)[C@@H](C)CCC1 [epothilone D]
cytoprotective action (CellTiter Glo assay) [1]: partial cytoprotective action
effect on tau aggregation (tau polymerization) [2]: not changed

CC(C)NCC(O)c1ccc(O)c(O)c1 (stereo not drawn) [isoproterenol]
cytoprotective action (CellTiter Glo assay) [1]: partial cytoprotective action
effect on tau aggregation (tau polymerization) [2]: partial inhibitory action on tau aggregation

CN(C)c1ccc2nc3ccc(=[N+](C)C)cc-3sc2c1 [methylene blue]
cytoprotective action (CellTiter Glo assay) [1]: partial cytoprotective action
effect on tau aggregation (tau polymerization) [2]: partial inhibitory action on tau aggregation
